Laboratory results reported in patent US20250368959A1, “COMPOSITIONS AND METHODS FOR DIFFERENTIATING STEM CELLS INTO NK CELLS” (CRISPR THERAPEUTICS AG, priority 2022, published 2025).

How the values were obtained:
Type in all cases: cell-based, human
[1] = tested on: CD45^+CD56^+ cells; assay: Effect of CHIR-99021 concentration in NK-MED-005 medium on iNK induction; conditions: 2.5, 3.5 or 4.5 μM in NK-MED-005c, AP2.0, day 20
Method: To determine the optimal concentration of CHIR-99021, different concentrations (2.5 μM, 3.5 μM or 4.5 μM) were added to the NK-MED-005c medium (Table 30) to test their effect on iNK induction. Differentiation proceeded according to Protocol 2 (AP2.0) as described in Example 11. Cells were collected and analyzed using flow cytometry to detect CD45^+CD56^+ cells at differentiation day 20.

[2] = tested on: CD56^+ cells; assay: CD45/CD56 expression on day 28 after iPSC-HSPC differentiation optimization
Method: For iPSC-HSPC differentiation optimization, CD45/CD56 expression on day 28 was measured (FIG. 10). The HSPC cells on day 6 were further differentiated to iNK in the StemPro-34-based differentiation media Table 12) in the presence of IL7, IL15, SCF. Flt3lFlt3l, (IL3 was added for days 6-14 only). […] However, it was not an optimal condition as the single cells production and expansion was lower than in conditions in the presence of Activin A molecule (data not shown). Due to low CD56^+ cells formation on day 28, the HSPC to iNK differentiation conditions was optimized.

[3] = tested on: blood lineage markers, CD33; assay: Effect of WNT-C59 in NK-MED-006 medium on iNK induction; conditions: 2 μM in NK-MED-006, AP2.0, day 20 cultures
Method: The effect of including WNT-C59 (2 μM) in NK-MED-006 medium during iNK induction using the AP2.0 protocol was examined. […] The addition of WNT-C59 increased proportion of cells expressing non-NK lineage markers.

[4] = tested on: iNK cell induction from HSPC; assay: Design of Experiment (DoE) I and β-mercaptoethanol test, day 6 to day 20; conditions: for direction of effect in DoE I: differentiation and cell number at day 20
Method: A design of Experiment (DoE) study was performed to determine the concentrations of zinc sulfate, β-mercaptoethanol, human serum, and glucose that would provide the most differentiation and increased number of cells at differentiation day 20. These factors were selected based on known chemical/biological effects of them in affect general cell proliferation and differentiation. Potential positive/negative involvement of β-mercaptoethanol, zinc ion, human serum, and glucose in NK cell or lymphocyte cell proliferation, killer cell receptor function, and cytotoxicity have been previously reported. There were no known studies conducted on testing optimal range of these factors in NK cell induction from HSPC.
To determine the effects of β-mercaptoethanol on differentiation, CD45+ and CD56+ expression was measured in cells cultured in Stempro34 media, DMEM/F12 media with low zinc, low human serum, and no β-mercaptoethanol (bME), or DMEM/F12 media with low zinc, low human serum, and 50 μM β-mercaptoethanol.
A second DoE experiment (DoE II) was subsequently performed to further optimize the concentrations of zinc, β-mercaptoethanol, human serum albumin, and glucose.

[5] = tested on: CD45^+/CD56^+ cells; assay: Stage II base media comparison (Stempro34 vs DMEM/F12 and others), Day 21 single cells
Method: This Example investigates the use of various alternative base media that can be used for Stage II differentiation. […] The HSPC to iNK differentiation from day 6 further on was done in StemPro-34-based media (Table 12). […] In this Example, the […] until day 6 as described in Example 2 (i.e., steps 1-5). Each media was supplemented with 20 ng/mL IL7, 20 ng/mL IL15, 20 ng/mL SCF, 20 ng/mL Flt3lFlt3l and 5 ng/mL of IL-3 for days 6-14 and 20 ng/mL IL7, 20 ng/mL IL15, 20 ng/mL SCF, 20 ng/mL Flt3lFlt3l for days 14-21 of differentiation.
Day 21 single cells were profiled for CD45^+/CD56^+, CD56^+/NKG2D^+, CD56^+/CD94^+, and CD56^+/CD16^+ expression (FIG. 12). […] The DMEM/F12 2:1 basal media was chosen due to its price and higher availability for scale up production.

## Cc1cnc(-c2cnc(NCCNc3ccc(C#N)cn3)nc2-c2ccc(Cl)cc2Cl)[nH]1 [CHIR-99021, 6-[[2-[[4-(2,4-Dichlorophenyl)-5-(5-methyl-1H-imidazol-2-yl)-2-pyrimidinyl]amino]ethyl]amino]-3-pyridinecarbonitrile]
[1]
  amount giving the highest proportion of CD45^+CD56^+ cells: moderate amount
[2]; CHIR-99021 alone versus conditions with Activin A, data not shown
  single cells production and expansion: lower
[2]; day 28, StemPro-34-based media, condition #5
  CD56^+ percentage, rank among conditions: highest CD56^+ percentage

## Cc1cc(-c2ccc(CC(=O)Nc3ccc(-c4cccnc4)cc3)cc2)ccn1 [WNT-C59]
[3]
  proportion of cells expressing non-NK lineage markers: increased
  proportion of iNK that expressed the myeloid progenitor marker CD33: altered

## O=S(=O)([O-])[O-].[Zn+2] [Zinc sulfate]
[4]
  direction of effect in DoE I: positive effect

## OCCS [β-mercaptoethanol]
[5]; StemPro34, bME 55 μM, 1 μM, 0 μM (samples #1, #2, #3), day 21
  CD45^+/CD56^+ cells: 60% to 90%
[5]; StemPro-based media, day 6 to day 21
  effect on iNK differentiation: prevented iNK differentiation
[4]; 50 μM in DMEM/F12 with low zinc, low human serum
  effect on iNK cell induction (CD45+, CD56+ expression): negative effect
[4]
  direction of effect in DoE I: negative effect
